Data taken from paper PMC6323635 (Journal of natural products, 2016).
Entries after “also recorded” stand apart in the source; their conditions may differ. Like-named read-outs stand apart in the source and are kept apart here.

Key:
[1] = system: tumor growth in xenograft models; details: cited from earlier work
COLO 205 cells = experiment: CCK-8 cytotoxicity assay under hypoxic conditions; assay type: cell-based; details: for Cell death in COLO 205 cells: up to concentrations of 10 μM, hypoxia; for IC50: read-out: IC50 value (μM) ± SEM, COLO 205 (48 h, 0.5% O2), COLO 205, 48 h, 0.5% O2, CCK-8
[2] = system: HIF-1α transcriptional activity in COLO 205 cells; experiment: HIF reporter assay; assay type: cell-based, human
DNA topoisomerase II = details: cited from earlier work
HIF-1α/p300 = HIF-1α/p300 (Homo sapiens, UniProt Q09472); experiment: HIF-1α/p300 screening assay; assay type: binding
[3] = system: HIF-1α transcriptional activity in HCT 116 cells; experiment: HIF reporter assay; assay type: cell-based
[4] = system: VEGF secretion in HCT 116 cells; experiment: VEGF ELISA; assay type: cell-based, human; details: for Hypoxia-induced VEGF secretion in HCT 116 cells: 48 h, 0.5% O2, concentrations active in HIF reporter assay
HCT 116 cells [5] = details: cited from earlier work
[6] = system: VEGF secretion in LNCaP cells; experiment: VEGF ELISA; assay type: cell-based, human; details: 18 h, 1% O2
[7] = system: ENO1, VEGF, and LDHA mRNA expression in PC3 prostate cancer cells; details: cited from earlier work
HCT 116 cells [8] = details: cited from earlier work; remark: listed apart in the source
HCT 116 cells [9] = experiment: CCK-8 cytotoxicity assay under hypoxic conditions; assay type: cell-based, human; details: 0.5% O2, CCK-8
LNCaP cells = experiment: CCK-8 cytotoxicity assay under hypoxic conditions; assay type: cell-based, human; details: read-out: IC50 value (μM) ± SEM, LNCaP (18 h, 1% O2), 1% O2, CCK-8
[10] = system: HIF-1α transcriptional activity in LNCaP cells; experiment: HIF reporter assay; assay type: cell-based, human
[11] = read-out: IC50 value (μM) ± SD, HIF-1α/p300 screening assay, cell-free assay, ± SD
[12] = read-out: IC50 value (μM) ± SEM, HCT 116 (18 h, 0.5% O2), HCT 116, 18 h

HIF-1α/p300, sequence (Q09472 331-417 limits assumed): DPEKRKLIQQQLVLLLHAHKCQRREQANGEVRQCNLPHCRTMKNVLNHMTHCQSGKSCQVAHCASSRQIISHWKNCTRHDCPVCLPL

O=C1CC2SC3CC2(C=C1Br)C1=C(N3)C(=O)c2[nH]cc3c2C1=NCC3 (single isomer, unassigned; (+)) [compound 6, (+)-discorhabdin A]
Tumor growth in xenograft models [1]: did not reduce tumor growth

O=C1C(NC2Cc3cc(Br)c(O)cc3S2)=CC2=NCCc3c[nH]c1c32 (single isomer, unassigned; (-)) [compound 5, (−)-makaluvamine F]
Cell death in COLO 205 cells (COLO 205 cells): did not cause substantial cell death
Concentrations causing significant inhibition of luciferase activity, COLO 205 ([2]; p < 0.05, 18 h, 0.5% O2): no effect
Inhibition of DNA topoisomerase II (DNA topoisomerase II): inhibit DNA topoisomerase II

CN1C(=O)[C@]2(Cc3cn([C@]45C[C@@]67SS[C@@](CO)(C(=O)N6[C@H]4Nc4ccccc45)N(C)C7=O)c4ccccc34)SS[C@@]1(CO)C(=O)N2C [chetomin, reference compound]
IC50 (HIF-1α/p300): 1.9 ± 0.5 µM

O=C1C=C2S[C@H]3C[C@]2(C=C1Br)C1=C(N3)C(=O)c2[nH]cc3c2C1=NCC3 [compound 1, (+)-discorhabdin B]
Concentrations causing significant inhibition of luciferase activity, COLO 205 ([2]; p < 0.05, 18 h, 0.5% O2): no effect
Tumor growth in xenograft models [1]: did not reduce tumor growth

O=C1C=C(S[C@H]2[C@H]3C(=O)C=C4S[C@H]5C[C@]42C2=C(N5)C(=O)c4[nH]cc5c4C2=[N+]3CC5)[C@]2(C=C1Br)CCNC1=C2C2=NCCc3c[nH]c(c32)C1=O [compound 2, (−)-discorhabdin B dimer]
Cell death in COLO 205 cells (COLO 205 cells): did not cause substantial cell death
Effect on HIF-1α transcriptional (reporter) activity in HCT 116 cells ([3]; in words, 18 h, 0.5% O2): most potent at decreasing reporter activity
Concentrations causing significant inhibition of luciferase activity, COLO 205 ([2]; p < 0.05, 18 h, 0.5% O2): no effect
Trend in VEGF secretion in HCT 116 cells ([4]; 0.1–0.25 μM, 18 h and 48 h): statistically nonsignificant trend in the decrease
Hypoxia-induced VEGF secretion in HCT 116 cells [4]: none of these compounds significantly reduced

O=C1C2=C(C3=NCCc4c[nH]c1c43)[C@]1(C=C(Br)[C@H](O)C(Br)=C1)CCN2 [compound 3, 3-dihydrodiscorhabdin C]
Concentrations causing significant inhibition of luciferase activity, COLO 205 ([2]; p < 0.05, 18 h, 0.5% O2): no effect
IC50 values, cytotoxicity in HCT 116 cells (HCT 116 cells [5]): lower micromolar range

O=C1C2=C3C4=[N+](CCc5c[nH]c1c54)[C@H]1C[C@@]34C[C@@H](N2)SC4=CC1=O [compound 7, (−)-discorhabdin D]
Antitumor activity in vivo [1]: the only reported discorhabdin with such activity

O=C1C2=C3C4=[N+](CCc5c[nH]c1c54)[C@@H]1C(=O)C=C4S[C@@H](C[C@@]43[C@H]1O)N2 [compound 9, (−)-discorhabdin L]
Concentrations causing significant inhibition of luciferase activity, COLO 205 ([2]; p < 0.05, 18 h, 0.5% O2): no effect
VEGF concentrations in LNCaP cells ([6]; 0.25–1 μM): borderline significant decrease
Hypoxia-induced VEGF secretion in HCT 116 cells [4]: none of these compounds significantly reduced

CN1C(=O)[C@]23CC4=CC=C[C@H](O)[C@H]4N2C(=O)[C@@]1(CO)SS3 [gliotoxin]
ENO1, VEGF, and LDHA mRNA expression in PC3 prostate cancer cells [7]: lowered
Effects on HIF target mRNA expression in HCT 116 cells (HCT 116 cells [8]): no effects

(+)-discorhabdin G*/I [compound 4]
IC50 values, cytotoxicity in HCT 116 cells (HCT 116 cells [5]): lower micromolar range

(−)-discorhabdin H [compound 8]
IC50 (HIF-1α/p300; [11]): 2.2 ± 0.6 µM
IC50 (HCT 116 cells [9]; [12]): > 10 µM
IC50 (HCT 116 cells [9]; read-out: IC50 value (μM) ± SEM, HCT 116 (48 h, 0.5% O2), HCT 116, 48 h): > 50 µM
IC50 (LNCaP cells): > 10 µM
IC50 (COLO 205 cells): > 10 µM
Cell death in COLO 205 cells (COLO 205 cells): did not cause substantial cell death
Concentrations causing significant inhibition of luciferase activity, LNCaP ([10]; p < 0.05, 18 h, 1% O2, superscript a = >50% cell death in CCK-8 assay): 0.1 µM
Concentrations causing significant inhibition of luciferase activity, COLO 205 ([2]; p < 0.05, 18 h, 0.5% O2): no effect
VEGF secretion in LNCaP cells ([6]; 0.5 μM): significant decrease; also recorded: significantly decreased
Hypoxia-induced VEGF secretion in HCT 116 cells [4]: none of these compounds significantly reduced

(−)-discorhabdin W [compound 11]
Activity in the screening assay (HIF-1α/p300; in words): no activity
IC50 (HIF-1α/p300; [11]): > 100 µM
IC50 (HCT 116 cells [9]; [12]): > 10 µM
IC50 (LNCaP cells): > 10 µM
IC50 (COLO 205 cells): > 10 µM
Cell death in COLO 205 cells (COLO 205 cells): did not cause substantial cell death
Effect on HIF-1α transcriptional (reporter) activity in HCT 116 cells [3]: reduced HIF reporter activity
Activity in HIF reporter assay in LNCaP cells [10]: did not show activity
Concentrations causing significant inhibition of luciferase activity, LNCaP [10]: no effect
Concentrations causing significant inhibition of luciferase activity, COLO 205 [2]: no effect
